# In patent US11419865B2, “Method for inducing a sustained immune response” (Cytocom Inc., priority 2016, dated 2022):
# Assays:
# [1] = system: patients with hematologic malignancies; test: randomized controlled trial of quality of life (EORTC QLQ-C30), 89 hematologic cancer patients; type: in vivo, human
# Procedure: 89 patients Hematologic Cancer Patients This was a randomized controlled trial assessing quality of life in patients with hematologic malignancies from a single institute in Hamedan. […] Quality of life was measured using the EORTC QLQ-C30 in four points in time (at admission, 1, 3 and 5 months follow-up).
# Data were analyzed to compare quality of life in two groups. In total, 89 patients were studied (45 in treatment group and 44 in placebo group). There were no significant differences between two groups either in demographic and clinical characteristics or in baseline quality of life scores.
# This study aimed to investigate its effect on hematologic cancer patients. This was a randomized controlled trial assessing quality of life in patients with hematologic malignancies from a single institute. […] Quality of life was measured using the EORTC QLQ-C30 in four points in time (at admission, 1, 3 and 5 months follow-up). Data were analyzed to compare quality of life in two groups. Totally, 89 patients were studied (45 in treatment group and 44 in placebo group). There were no significant differences between two groups either in demographic and clinical characteristics or in baseline quality of life scores. However, at 1 month, 3 and 5-month follow-up assessments significant differences were observed. […].
# Hepatitis B = Hepatitis B case report; type: in vivo, human; conditions: 1 mg
# [2] = system: children with moderate to severe Crohn's disease; test: pilot clinical trial in children with moderate to severe Crohn's disease; type: in vivo, human; set-up: patients in remission (PCDAI score≤10): unit not given here
# Procedure: A pilot clinical trial was conducted in children with moderate to severe Crohn's disease. Fourteen subjects with a mean age of 12.3 years (range, 8 to 17 y) were enrolled. […]. Safety and toxicity were monitored by physical examinations and blood chemistries. Clinical activity was assessed by the Pediatric Crohn's Disease Activity Index (PCDAI) and Quality of life was monitored by the Impact III survey. […] […].
# [3] = system: subjects with active Crohn's disease; test: randomized placebo-controlled study, forty subjects with active Crohn's disease; type: in vivo, human
# Description: Forty subjects with active Crohn's disease were enrolled in the study. […] Providers and patients were masked to treatment assignment. The primary outcome was the proportion of subjects in each arm with a 70-point decline in Crohn's Disease Activity Index score (CDAI). The secondary outcome included mucosal healing based upon colonoscopy appearance and histology. […].
# Hashimoto's patients = test: Hashimoto's thyroiditis case reports
# Procedure: Patient was taking L-thyroxine and pain medications and 75 mg Zoloft.
# Patients was taking Synthroid 150 mcg, Compounded T3 25 mcg, Progesterone 150 mg, Plus lots of supplements like Magnesium, D3, Methyl B12, Methyl folate, Selenium, E, Amino Restore, CLA, NAC, DE, Adaptacin.
# Shingles = test: shingles case report; type: in vivo, human; conditions: 4.5 mg nightly from 2013; before 8 major outbreaks over 18 months
# Procedure: A person diagnosed with Shingles in 2010 over 18 months had 8 major outbreaks, and was treated with acyclovir, and valacyclovir, as the outbreaks continued they prescribed Lidocaine patches and pain medications. […]
# [4] = system: multiple sclerosis (MS) patients; test: double-masked, placebo-controlled crossover pilot trial on quality of life in multiple sclerosis, 80 patients; type: in vivo, human; conditions: 4.5 mg nightly
# Description: RESULTS: Eighty subjects with clinically definite MS were enrolled, and 60 subjects completed the trial. Ten withdrew before completing the first trial period: 8 for personal reasons, 1 for a non-MS-related adverse event, and 1 for perceived benefit. Database management errors occurred in 4 other subjects, and quality of life surveys were incomplete in 6 subjects for unknown reasons. […] LDN was associated with significant improvement on the following mental health quality of life measures: a 3.3-point improvement on the Mental Component Summary score of the Short Form-36 General Health Survey (p=0.04), a 6-point improvement on the Mental Health Inventory (p<0.01), a 1.6-point improvement on the Pain Effects Scale (p=0.04), and a 2.4-point improvement on the Perceived Deficits Questionnaire (p=0.05). […] Further studies with LDN in MS are warranted.
# MS patients = test: multiple sclerosis case reports; type: in vivo, human
# [5] = system: Rheumatoid Arthritis patients; test: rheumatoid arthritis case reports; type: in vivo, human
# Procedure: A person diagnosed with Rheumatoid Arthritis in 2006 and was being treated with methotrexate and plaquenil but patients continued with pain and fatigue. […]
# A person diagnosed 5 years ago with RA was treated with Methotrexate 25 mg per week and Remicade 300 U every 6 weeks, the fatigue and pain continued, along with the inflammation and general weakness. Sleep disturbed nightly due to pain in my shoulders and hips. Patient felt their life was not acceptable and none of the immunosuppression drugs were helping. […] Within two weeks patient stopped even ibuprophen. Rheumatoid factor has gone from 127 to 66 in 4 months and has stayed stable. […] Occasionally patient has pain but it is easily controlled with a normal dosage of ibuprophen.
# A person, diagnosed with RA in 1999 stayed very active until 2005 on a combination of Methotrexate and Prednisone but was have difficulty maintaining their business due to fatigue and severe joint pain with deformity of their hands and elbows. Patient was told to increase their does and start a second immunomodulating drug. Patient no longer wanted to continue with immunosuppression drug or steroids due to the side effects. […]; they have no pain that can't be handled with aspirin.
# [6] = system: patients diagnosed with fibromyalgia; test: open label single center study, twenty-five fibromyalgia patients; type: in vivo, human; conditions: 4.5 mg
# cancer patients = conditions: cited from earlier work
# [7] = 0.1 mg/kg orally, end of the study
smiles,measurement,setting,value
"O=C1CC[C@@]2(O)[C@H]3Cc4ccc(O)c5c4[C@@]2(CCN3CC2CC2)[C@H]1O5 [Immediate release naltrexone, naltrexone]",social functioning (EORTC QLQ-C30) vs placebo,"[1]; 3 mg capsules daily plus routine treatment, one month follow-up, p<0.05",better condition in the treatment group
same,blood laboratory tests,[1]; 3 mg daily,no changes in the blood laboratory tests
same,"social functioning, role functioning, nausea and vomiting and appetite loss vs placebo","[1]; 3 mg daily, 3-month follow-up, all p-values<0.05",better in the treatment group
same,"physical, social, role functioning, global quality of life, nausea and vomiting and appetite loss vs placebo","[1]; 3 mg daily, 5-month follow-up",significantly better
same,"additional benefits, child, Hepatitis B",Hepatitis B,resolutions of eczema
same,"serology, child, Hepatitis B",Hepatitis B; within 7 months,Sero-conversion to negative antigens and positive antibodies
same,"ALT/AST, child, Hepatitis B",Hepatitis B; within one month,decreased to normal
same,"viral load, child, Hepatitis B","Hepatitis B; within one month, from 59.2 million","53,000"
same,safety and tolerability,[2]; 0.1 mg/kg orally,well tolerated without any serious adverse events
same,patients improved with mild disease activity (decrease in PCDAI score by at least 10 points),[2]; [7],67%
same,patients in remission (PCDAI score≤10),[2]; [7],Twenty-five
same,Systemic and social quality of life (Impact III),[2]; P=0.035,improved
same,subjects with at least a 70-point decline in CDAI scores,"[3]; 4.5-mg daily oral, placebo 40%, p=0.009",Eighty-eight
same,subjects achieving remission with a CDEIS score<6,"[3]; after 12 weeks, placebo 8%",33%
same,subjects with endoscopic response (5-point decline in CDEIS),"[3]; after 12 weeks, placebo 28%, p=0.008",78%
same,side effects,[3]; vs placebo,Fatigue was the only side effect reported that was significantly greater in subjects receiving placebo
same,"lab work, person, Hashimoto's",Hashimoto's patients; 1.5 mg,Latest lab work was normal in all areas
same,"side effect, person, Hashimoto Thyroiditis",Hashimoto's patients; 3 mg in morning and 1 mg at night,strange dreams
same,"TPO levels, person, Hashimoto's","Hashimoto's patients; 4.5 mg with T3/T4 capsules from August 2011, initial 350",returned to normal
same,"TgAb, person, Hashimoto's","Hashimoto's patients; titrated 1.5, 3, 4.5 mg, from 77",< 1
same,"outbreaks, person, Shingles",Shingles,have not had a single outbreak
same,tolerability and serious adverse events,[4],"well tolerated, and serious adverse events did not occur"
same,improvement on the Mental Component Summary score of the Short Form-36 General Health Survey,"[4]; 8 weeks, p=0.04",3.3 point
same,"first three months, person, Secondary Progressive MS",MS patients; 1.5 mg at bedtime increasing to 3 mg from July of 2005,no real improvement in the first three months accept no flair of MS
same,"disease course, person, relapsing remitting MS","MS patients; 1.5 mg increasing to 4.5 mg nightly with progesterone, estriol, Cortef",back at work for 5 years without an exacerbation
same,"MRI, person, secondary-progressive multiple sclerosis (SPMS)","MS patients; 1.5 mg then 3 mg from July of 2009, January of 2011",MRI showed reduced plaque and lesion size
same,"disease course, person, fast deteriorating M.S.","MS patients; 1.5 mg, 3 mg, then 4.5 mg for seven months",the disease has stabilized and the progressive deterioration has stopped
same,"disease course, person, M.S. of 35 years","MS patients; 3 mg for 30 days then 4.5 mg at bedtime, over three months",regained their ability to see and walk and their cognitive ability improved as well
same,"mobility, person four, Relapsing Remitting MS, wheelchair bound",MS patients; 3 mg nightly from July 2004,walking again with a cane for assistance within 10 days
same,"relapses, person two, Relapsing Remitting MS",MS patients; 4.5 mg at bedtime since 2002,has not had a one relapse
same,"side effects, person four, Relapsing Remitting MS",MS patients; 4.5 mg nightly from August of 2004,minimal side effects some insomnia
same,"relapses, person four, Relapsing Remitting MS","MS patients; 4.5 mg nightly, last update 2010",no relapses
same,"MRI, person two, Relapsing Remitting MS","MS patients; 4.5 mg, over the last 8 years",no progression of the disease
same,"mobility, person, Secondary Progressive MS","MS patients; months 3 to 6, later 4.5 mg",upgraded from wheelchair to cane
same,"medication use, person, Rheumatoid Arthritis",[5]; 1.5 mg titrated up to 4.5 mg from April of 2009,Successfully discontinued methotrexate March of 2010 and then discontinued plaquenil in October of 2010
same,"fatigue, person, RA",[5]; 4.5 mg at bedtime,Fatigue is gone
same,"Rheumatoid factor, person, RA","[5]; 4.5 mg at bedtime, from 127 in 4 months",66
same,"medication use, person, RA","[5]; 4.5 mg at bedtime, within 7 days",stooped all traditional RA medications
same,"disease course, person, RA","[5]; 4.5 mg with diet, supplements, hormones etc., 7 years later",RA has not advanced
same,average improvement in FIQR in eleven patients (50%),[6],41%
same,"disease course, person, adenocarcinoma of the pancreas with liver metastases","cancer patients; 4.5 mg once per day at bedtime with i.v. and oral ALA, selenium, silymarin, diet",comparatively stable disease for more than a 3-year period and an improved quality of life
same,"follow-up status, person, Follicular Lymphoma",cancer patients; 2007 report,"remains asymptomatic from their disease, 1 year after their last CT/PET imaging"
same,"disease outcome, person, Follicular Lymphoma","cancer patients; daily in the evening, after 6 months, not compliant with diet, supplement, ALA",clinical and radiological remission
